Experimental data reported in the NIST ThermoML archive (doi:10.1021/je025639s).

Tests used:
[1] = Ring tensiometer
[2] = xn = mol fraction of the nth substance listed; conditions: Ring tensiometer

OCCO [1,2-ethanediol]
[1]
Conditions	surface tension liquid-gas [mN/m]
293.15 K	48.9
298.15 K	48.6
303.15 K	48.1
308.15 K	47.5
313.15 K	47.1
318.15 K	46.4
323.15 K	45.9

CCO [ethanol] + OCCO
[2], x1 = 1
Conditions	surface tension liquid-gas [mN/m]
293.15 K	22.3
298.15 K	21.8
303.15 K	21.4
308.15 K	21.1
313.15 K	20.8
318.15 K	20.5
323.15 K	20

OCCO [1,2-ethanediol] + CCO
surface tension liquid-gas [mN/m], [2]
Conditions	293.15 K	298.15 K	303.15 K	308.15 K	313.15 K	318.15 K	323.15 K
x2 = 0	48.9	48.6	48.1	47.5	47.1	46.4	45.9
x2 = 0.1	42	41.8	41.4	41.2	41	40.6	39.8
x2 = 0.3	32.9	32.7	32.2	31.6	31.1	30.8	30.7
x2 = 0.5	28.5	28.3	27.8	27.4	27	26.7	26.5
x2 = 0.6	26.9	26.4	26.1	25.8	25.4	25	24.8
x2 = 0.7	25	24.9	24.7	24.4	24	23.6	23.2
x2 = 0.9	23.1	22.68	22.33	22.05	21.8	21.55	21.1

CCO [ethanol]
[1]
Conditions	surface tension liquid-gas [mN/m]
293.15 K	22.3
298.15 K	21.8
303.15 K	21.4
308.15 K	21.1
313.15 K	20.8
318.15 K	20.5
323.15 K	20
